Measured values published in PMC10584170, “Machine learning-based phenotypic imaging to characterise the targetable biology of Plasmodium falciparum male gametocytes for the development of transmission-blocking antimalarials” (PLOS Pathogens, 2023).

How the values were obtained:
[1] = system: P. falciparum female gametocytes; experiment: P. falciparum Dual Gamete Formation Assay (PfDGFA), female readout (Pfs25-positive female gametes); type: cell-based, Plasmodium falciparum NF54; conditions: for Average inhibition female (%): average of replicates; for % inhibition female (individual replicates) R1: replicate R1; for % inhibition female (individual replicates) R3: replicate R3; for % inhibition female (individual replicates) R4: replicate R4
Summary of the method: (§1)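 First, day-14 P. falciparum NF54 gametocytes receive compound for 24 h at 37°C in 1% O2/3% CO2. Next, ookinete medium with Cy3 anti-Pfs25 triggers gametogenesis at 28°C and male exflagellation is imaged. Finally, after 24 h in the dark, Cy3-labelled females are imaged.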

[2] = system: P. falciparum male gametocytes; experiment: P. falciparum Dual Gamete Formation Assay (PfDGFA), male readout (exflagellation); type: cell-based, Plasmodium falciparum NF54; conditions: for Average inhibition male (%): average of replicates; for % inhibition male (individual replicates) R1: replicate R1; for % inhibition male (individual replicates) R3: replicate R3; for % inhibition male (individual replicates) R4: replicate R4; for Activity: hit = >50% inhibition in male or female readout in at least 3 replicates, 0 = no class assigned
Summary of the method: as §1

[3] = PfDGFA at 2µM, 24h preincubation with gametocytes
[4] = number of replicates with >50% inhibition in the female readout, 2µM
[5] = number of replicates with >50% inhibition in the male readout, 2µM
[6] = PfDGFA at 2µM, 24h preincubation with gametocytes prior to induction of gametogenesis
[7] = PfDGFA at 2µM, 24h preincubation
[8] = 2µM, 24h preincubation with gametocytes prior to induction of gametogenesis
[9] = 2µM, 24h preincubation, number of replicates with >50% inhibition in the female readout
[10] = 2µM, 24h preincubation, number of replicates with >50% inhibition in the male readout
[11] = 2µM, 24h preincubation, hits selected on >50% inhibition in the female readout across replicates
[12] = 2µM, 24h preincubation, hits selected on >50% inhibition in the male readout across replicates

## c1ccc(Oc2ccc(Nc3ccnc(Nc4cccc(CNCCCN5CCOCC5)c4)n3)cc2)cc1 [TCMDC-138615]
[1]; [3]
  Average inhibition female (%): 19.0%
  % inhibition female (individual replicates) R1: 20.2%
  % inhibition female (individual replicates) R3: 10.9%
  % inhibition female (individual replicates) R4: 5.3%
[1]; [4]
  HitlevelF: 0
[2]; [3]
  Average inhibition male (%): 70.3%
  % inhibition male (individual replicates) R1: 74.9%
  % inhibition male (individual replicates) R3: 61.1%
  % inhibition male (individual replicates) R4: 77.6%
[2]; [5]
  HitlevelM: 4

## CCCCN(Cc1cc(Cl)c(OC)c(OC)c1)c1ccc(C(O)(C(F)(F)F)C(F)(F)F)cc1.O=C(O)C(F)(F)F [TCMDC-135446]
[1]; [6]
  % inhibition female (individual replicates) R1: 1.9%
  % inhibition female (individual replicates) R3: -6.9%
  % inhibition female (individual replicates) R4: 1.5%
[1]; [7]
  Average inhibition female (%): -3.4%
[2]; [6]
  % inhibition male (individual replicates) R1: -14.8%
  % inhibition male (individual replicates) R4: -29.5%
[2]; [7]
  Average inhibition male (%): -22.3%

## FC(F)(F)c1ccc2[nH]c(-c3ccc(-c4ccc(CNCCN5CCNCC5)cc4)s3)nc2c1.O=C(O)C(F)(F)F [TCMDC-132862]
[1]; [8]
  Average inhibition female (%): 20.7%
  % inhibition female (individual replicates) R1: 21.1%
  % inhibition female (individual replicates) R3: 13.2%
  % inhibition female (individual replicates) R4: 20.9%
[1]; [9]
  HitlevelF: 0
[2]; [8]
  Average inhibition male (%): 44.8%
  % inhibition male (individual replicates) R1: 46.6%
  % inhibition male (individual replicates) R3: 56.6%
  % inhibition male (individual replicates) R4: 89.1%
[2]; [10]
  HitlevelM: 2

## CC1(C)N=C(N)N=C(N)N1c1cccc(Cl)c1.Cl [TCMDC-123960]
[1]; [6]
  % inhibition female (individual replicates) R1: 5.3%
  % inhibition female (individual replicates) R3: -21.5%
  % inhibition female (individual replicates) R4: 5.4%
[1]; [7]
  Average inhibition female (%): -0.8%
[2]; [6]
  % inhibition male (individual replicates) R1: 4.7%
  % inhibition male (individual replicates) R3: -1.4%
  % inhibition male (individual replicates) R4: -9.8%
[2]; [7]
  Average inhibition male (%): 3.0%

## O=C1O[C@H](c2ccccc2)[C@H](c2ccccc2)N(C(=O)OCc2ccccc2)[C@H]1Cc1ccccc1C1CCCC1 [TCMDC-137303]
[1]; [8]
  Average inhibition female (%): 4.6%
  % inhibition female (individual replicates) R1: 6.2%
  % inhibition female (individual replicates) R3: -0.36%
  % inhibition female (individual replicates) R4: 6.0%
[1]; [11]
  HitlevelF: 0
[2]; [8]
  Average inhibition male (%): -2.7%
  % inhibition male (individual replicates) R1: 16.1%
  % inhibition male (individual replicates) R4: -23.7%
[2]; [12]
  HitlevelM: 0
[2]; [7]
  Activity: 0

## Nc1nc(N)c2c(Cl)c(N3CCOCC3)ccc2n1 [TCMDC-137868]
[1]; [8]
  Average inhibition female (%): 8.8%
  % inhibition female (individual replicates) R1: 9.4%
  % inhibition female (individual replicates) R3: -3.6%
  % inhibition female (individual replicates) R4: -2.4%
[1]; [11]
  HitlevelF: 0
[2]; [8]
  Average inhibition male (%): -14.2%
  % inhibition male (individual replicates) R1: 5.7%
  % inhibition male (individual replicates) R3: -9.7%
  % inhibition male (individual replicates) R4: -52.5%
[2]; [12]
  HitlevelM: 0
[2]; [7]
  Activity: 0

## CCc1nc(N)nc(N)c1CCCOc1ccccc1Cl.Cl [TCMDC-137928]
[1]; [8]
  Average inhibition female (%): 14.6%
  % inhibition female (individual replicates) R1: 20.2%
  % inhibition female (individual replicates) R3: 26.6%
  % inhibition female (individual replicates) R4: 2.3%
[1]; [11]
  HitlevelF: 0
[2]; [8]
  Average inhibition male (%): -0.378%
  % inhibition male (individual replicates) R1: 19.6%
  % inhibition male (individual replicates) R3: 1.0%
  % inhibition male (individual replicates) R4: -29.1%
[2]; [12]
  HitlevelM: 0
[2]; [7]
  Activity: 0

## COc1ccc(CCNCCCCCCNCCCc2ccc(Cl)cc2)cc1OC.Cl [TCMDC-131280]
[1]; [8]
  Average inhibition female (%): 17.7%
  % inhibition female (individual replicates) R1: 16.6%
  % inhibition female (individual replicates) R3: 13.1%
  % inhibition female (individual replicates) R4: 24.0%
[1]; [11]
  HitlevelF: 0
[2]; [8]
  Average inhibition male (%): 28.8%
  % inhibition male (individual replicates) R1: 30.2%
  % inhibition male (individual replicates) R3: 15.3%
  % inhibition male (individual replicates) R4: 32.2%
[2]; [12]
  HitlevelM: 0
[2]; [7]
  Activity: 0

## CC(C)(C)c1ccc(N2C(N)=NC(N)=NC2(C)C)cc1.Cl [TCMDC-137713]
[1]; [8]
  Average inhibition female (%): 20.6%
  % inhibition female (individual replicates) R1: 16.4%
  % inhibition female (individual replicates) R3: 30.6%
  % inhibition female (individual replicates) R4: 16.4%
[1]; [9]
  HitlevelF: 0
[2]; [8]
  Average inhibition male (%): -3.6%
  % inhibition male (individual replicates) R1: 17.2%
  % inhibition male (individual replicates) R3: 2.2%
  % inhibition male (individual replicates) R4: -36.5%
[2]; [10]
  HitlevelM: 0

## O=C(O)C(F)(F)F.c1ccc(CCNCc2ccc(-c3ccc(CNC4CCN(Cc5ccccc5)CC4)cc3)nc2)cc1 [TCMDC-141649]
[1]; [8]
  Average inhibition female (%): 11.9%
  % inhibition female (individual replicates) R1: 20.3%
  % inhibition female (individual replicates) R3: -13.0%
  % inhibition female (individual replicates) R4: 18.4%
[1]; [11]
  HitlevelF: 0
[2]; [8]
  Average inhibition male (%): 11.3%
  % inhibition male (individual replicates) R1: 9.5%
  % inhibition male (individual replicates) R3: -1.4%
  % inhibition male (individual replicates) R4: 30.2%
[2]; [12]
  HitlevelM: 0
[2]; [7]
  Activity: 0

## Cc1nc(N)nc(N)c1-c1ccc(Br)c([N+](=O)[O-])c1 [TCMDC-138071]
[1]; [8]
  Average inhibition female (%): 6.9%
  % inhibition female (individual replicates) R1: 11.0%
  % inhibition female (individual replicates) R3: 2.2%
  % inhibition female (individual replicates) R4: 10.1%
[1]; [11]
  HitlevelF: 0
[2]; [8]
  Average inhibition male (%): -11.3%
  % inhibition male (individual replicates) R1: 15.3%
  % inhibition male (individual replicates) R3: 5.2%
  % inhibition male (individual replicates) R4: -48.5%
[2]; [12]
  HitlevelM: 0
[2]; [7]
  Activity: 0

## CN1CCN(c2cc3c(cc2Cl)CCN3C(=O)Nc2ccc(NC(=O)c3ccc(C(F)(F)F)cc3)cc2)CC1.Cl [TCMDC-139270]
[1]; [3]
  Average inhibition female (%): 59.6%
  % inhibition female (individual replicates) R1: 37.1%
  % inhibition female (individual replicates) R3: 50.9%
  % inhibition female (individual replicates) R4: 69.9%
[1]; [4]
  HitlevelF: 3
[2]; [3]
  Average inhibition male (%): 84.1%
  % inhibition male (individual replicates) R1: 90.7%
  % inhibition male (individual replicates) R3: 63.5%
  % inhibition male (individual replicates) R4: 92.9%
[2]; [5]
  HitlevelM: 4

## CCOc1cc2ccccc2cc1CNCCCCCCNCc1cc2ccccc2cc1OCC.CS(=O)(=O)O [TCMDC-137940]
[1]; [8]
  Average inhibition female (%): 10.1%
  % inhibition female (individual replicates) R1: 11.4%
  % inhibition female (individual replicates) R3: 8.9%
  % inhibition female (individual replicates) R4: 5.4%
[1]; [11]
  HitlevelF: 0
[2]; [8]
  Average inhibition male (%): -10.2%
  % inhibition male (individual replicates) R1: -8.8%
  % inhibition male (individual replicates) R3: -9.1%
  % inhibition male (individual replicates) R4: -15.1%
[2]; [12]
  HitlevelM: 0
[2]; [7]
  Activity: 0

## Cl.Nc1nc(N)c2c(ccc3c2cnn3S(=O)(=O)N2CCCC2)n1 [TCMDC-137852]
[1]; [6]
  % inhibition female (individual replicates) R1: 0.4%
  % inhibition female (individual replicates) R3: -21.8%
  % inhibition female (individual replicates) R4: -7.9%
[1]; [7]
  Average inhibition female (%): -7.0%
[2]; [6]
  % inhibition male (individual replicates) R1: 28.2%
  % inhibition male (individual replicates) R3: -12.1%
  % inhibition male (individual replicates) R4: -13.1%
[2]; [7]
  Average inhibition male (%): 5.0%

## Cn1cc(CN2CCC(OC(c3ccccc3)c3ccc(Cl)cc3)CC2)cn1 (centres unmarked) [TCMDC-136165]
[1]; [8]
  Average inhibition female (%): 27.9%
  % inhibition female (individual replicates) R1: 28.0%
  % inhibition female (individual replicates) R3: 20.7%
  % inhibition female (individual replicates) R4: 33.3%
[1]; [9]
  HitlevelF: 0
[2]; [8]
  Average inhibition male (%): 26.9%
  % inhibition male (individual replicates) R1: 21.0%
  % inhibition male (individual replicates) R3: 11.7%
  % inhibition male (individual replicates) R4: 55.6%
[2]; [10]
  HitlevelM: 1

## CC1(C)N=C(N)N=C(N)N1c1ccc(Cl)c(Cl)c1.Cl [TCMDC-142180]
[1]; [6]
  % inhibition female (individual replicates) R1: -5.5%
  % inhibition female (individual replicates) R3: -6.4%
  % inhibition female (individual replicates) R4: 1.4%
[1]; [7]
  Average inhibition female (%): -4.7%
[2]; [6]
  % inhibition male (individual replicates) R1: 8.4%
  % inhibition male (individual replicates) R4: -27.5%
[2]; [7]
  Average inhibition male (%): 6.9%

## CN1CCN(CCCCNc2c3ccccc3nc3ccccc23)CC1 [TCMDC-137479]
[1]; [8]
  Average inhibition female (%): 21.2%
  % inhibition female (individual replicates) R1: 27.6%
  % inhibition female (individual replicates) R3: -3.0%
  % inhibition female (individual replicates) R4: 19.8%
[1]; [9]
  HitlevelF: 0
[2]; [8]
  Average inhibition male (%): 37.9%
  % inhibition male (individual replicates) R1: 56.6%
  % inhibition male (individual replicates) R3: -27.6%
  % inhibition male (individual replicates) R4: 45.6%
[2]; [10]
  HitlevelM: 2

## CN(c1ncc(-c2cccc(CNCc3ccccc3O)c2)cn1)C1CCCCC1 [TCMDC-133137]
[1]; [6]
  % inhibition female (individual replicates) R1: 2.5%
  % inhibition female (individual replicates) R3: -2.1%
  % inhibition female (individual replicates) R4: 17.4%
[1]; [7]
  Average inhibition female (%): 2.8%
[2]; [6]
  % inhibition male (individual replicates) R1: -18.7%
  % inhibition male (individual replicates) R4: -25.6%
[2]; [7]
  Average inhibition male (%): -17.4%
